{"source": "patent US20220000848A1", "about": "“APPLICATION OF CHIDAMIDE” (SHENZHEN CHIPSCREEN BIOSCIENCES CO., LTD., priority 2018, published 2022)", "key": {"[1]": {"system": "relapsed or refractory follicular lymphoma (FL) accompanied with specific epigenetic regulatory gene mutation", "test": "Multicenter, single-arm, open clinical trial of Chidamide tablet in relapsed or refractory follicular lymphoma with CREBBP and/or EP300 mutation (pre-test)", "assay_type": "in vivo, human", "conditions": "11 patients accompanied with epigenetic mutation B-NHL, oral 30 mg 2 times a week", "procedure": "(§1) Test drugs: Chidamide tablets: off-white tablets, 5 mg/tablet. Produced by Shenzhen Chipscreen Biosciences Co., Ltd.\nDosage regimen: 2 times a week, 30 mg each time, the interval of two administrations should not be less than 3 days (for example, on Monday and Thursday, Tuesday and Friday, Wednesday and Saturday, etc.). The administration was performed 30 minutes after breakfast, every 3 weeks was a treatment cycle. During the entire study, all subjects should unceasingly receive the treatment under study until the appearance of any one of the following conditions: progression of disease, intolerable adverse reaction, death, withdrawal from treatment, withdrawal of the informed consent or loss to follow-up. […]\n4. Having CREBBP and/or EP300 specific genetic mutation that was confirmed by second-generation sequencing;\nPatients were orally administrated with Chidamide according to the regimen, and the following safety- and efficacy follow-ups were performed at the specified times:\nFollow-up interval: Efficacy assessment was carried out once every 6 weeks; and efficacy follow-up was performed at the end of treatment.\nEfficacy evaluation means: Evaluation of lymph nodes and organ lesions, skin lesions was performed by imaging methods (CT or PET/CT), clinical examination, bone marrow puncture and biopsy. The imaging methods used for patients must be the same at all follow-up points. […]"}, "[2]": {"system": "relapsed or refractory B cell lymphoma", "test": "Phase II clinical trial of Chidamide monotherapy in relapsed or refractory B cell lymphoma", "assay_type": "in vivo, human", "conditions": "patients, oral 30 mg 2 times a week; 8 cases evaluated of 10 enrolled", "procedure": "as §1\nDosage regimen: 2 times a week, 30 mg each time, the interval of two administrations should not be less than 3 days (for example, on Monday and Thursday, Tuesday and Friday, Wednesday and Saturday, etc.). The administration was performed 30 minutes after breakfast, every 3 weeks was a treatment cycle. During the entire study, all subjects should unceasingly receive the treatment under study until the appearance of any one of the following conditions: progression of disease, intolerable adverse reaction, death, withdrawal from treatment, withdrawal of the informed consent or loss to follow-up.\nNumber of cases: Simon's optimal two-stage design was adopted, 72 patients were enrolled, and pathological subtypes included: follicular lymphoma (FL) grade 1, grade 2 or grade 3, marginal zone B-cell lymphoma (MALT), lymphoplasmacytic lymphoma (LPL), small lymphocyte B cell lymphoma (SLL), diffuse large B cell lymphoma (DLBCL).\nThe patients were orally administrated with Chidamide according to the aforementioned dosage regimen, and the safety- and efficacy evaluation were performed as required at the specified time.\nEfficacy evaluation time: efficacy evaluation was performed once every 6 weeks. […]"}}, "data": [{"smiles": "Nc1cc(F)ccc1NC(=O)c1ccc(CNC(=O)/C=C/c2cccnc2)cc1", "note": "[Chidamide]", "values": [{"measurement": "CR", "setting": "[1]", "result": 36.3, "unit": "%"}, {"measurement": "ORR", "setting": "[1]", "result": 72.7, "unit": "%"}, {"measurement": "ORR", "setting": "[2]", "result": 37.5, "unit": "%"}, {"measurement": "benefit rate", "setting": "[2]", "result": 62.5, "unit": "%"}]}]}
